Measurements reported in US6828344B1, “Inhibitors of phospholipase enzymes” (Genetics Institute, LLC, priority 1998, dated 2004).
pIC50: −log10 of the molar value.

These compounds were tested against T1, cPLA2 (Homo sapiens, UniProt P47712) (assay: Coumarine assay (cPLA2 inhibition)). Settings: 7-hydroxycoumarinyl 6-heptenoate as monomeric substrate, fluorescence 360/460 nm; read-out: Coumarin IC50.
T1 sequence (P47712 1-749): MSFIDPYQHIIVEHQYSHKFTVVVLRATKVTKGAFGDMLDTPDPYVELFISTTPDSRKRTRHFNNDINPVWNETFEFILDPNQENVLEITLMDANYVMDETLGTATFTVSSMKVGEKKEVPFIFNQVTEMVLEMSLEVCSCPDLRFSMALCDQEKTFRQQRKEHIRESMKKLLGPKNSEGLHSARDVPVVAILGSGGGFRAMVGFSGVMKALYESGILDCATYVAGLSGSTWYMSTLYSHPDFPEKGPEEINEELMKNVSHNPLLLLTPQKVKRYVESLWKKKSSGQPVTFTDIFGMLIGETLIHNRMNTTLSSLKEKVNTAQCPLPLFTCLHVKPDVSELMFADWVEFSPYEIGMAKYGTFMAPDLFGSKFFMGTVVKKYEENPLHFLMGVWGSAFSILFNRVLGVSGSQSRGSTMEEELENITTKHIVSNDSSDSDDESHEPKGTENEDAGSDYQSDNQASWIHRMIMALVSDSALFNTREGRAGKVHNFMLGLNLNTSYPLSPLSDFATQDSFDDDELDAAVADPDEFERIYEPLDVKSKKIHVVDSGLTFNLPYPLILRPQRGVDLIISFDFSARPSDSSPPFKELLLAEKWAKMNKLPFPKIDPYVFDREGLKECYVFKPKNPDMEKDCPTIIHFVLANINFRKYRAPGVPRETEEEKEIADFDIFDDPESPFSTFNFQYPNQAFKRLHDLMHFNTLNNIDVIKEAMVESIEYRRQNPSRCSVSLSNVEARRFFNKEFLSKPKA
Assay type: biochemical
Method: 7-hydroxycoumarinyl 6-heptenoate was used as a monomeric substrate for cPLA2 as reported previously (Huang, Z. et al., 1994, Nalytical Biochemistry 222, 110-115). Inhibitors were mixed with 200 μL assay buffer (80 mM Heped, pH 7.5, l mM EDTA) containing 60 μM 7-hydroxycoumarinyl 6-heptenoate. The reaction was initiated by adding 4 μg cPLA2 in 50 μL assay buffer. Hydrolysis of the 7-hydroxycoumarinyl 6-heptenoate ester was monitored in a fluorometer by exciting at 360 nm and monitoring emission at 460 nm. Enzyme activity is proportional to the increase in emission at 460 nm per minute. In the presence of a cPLA2 inhibitor, the rate of increase is less.

| Structure (SMILES) | pIC50 |
| --- | --- |
| O=C(O)CCc1ccc(S(=O)(=O)CCn2cc(C(c3ccccc3)c3ccccc3)c3ccc(Cl)cc32)cc1 [Example 91, 3(4-{[2-(3-benzhydryl-6-chloro-1H-indol-1-yl)ethyl]sulfonyl}phenyl)propanoic acid] | 5.40 |
| O=C(O)c1ccc(S(=O)(=O)CCn2cc(C(c3ccccc3)c3ccccc3)c3ccc(Cl)cc32)cc1 [Example 92, 4-{[2-(3-benzhydryl-6-chloro-1H-indol-1-yl)ethyl]sulfonyl}benzoic acid] | 5.05 |
| Cc1c(C(c2ccccc2)c2ccccc2)c2ccccc2n1CCOc1ccc(C(=O)O)cc1 [Example 93, 4-[2-(3-benzhydryl-2-methyl-1H-indol-1-yl)ethoxy]benzoic acid] | 5.60 |

Continued, values first:

| pIC50 | Structure (SMILES) |
| --- | --- |
| 5.92 | Cc1c(C(c2ccccc2)c2ccccc2)c2cc(Cl)ccc2n1CCOc1ccc(CCC(=O)O)cc1 [Example 90, 3-{4-[2-(3-benzhydryl-5-chloro-2-methyl-1H-indol-1-yl)ethoxy]phenyl}propanoic acid] |
| 5.60 | Cc1c(C(c2ccccc2)c2ccccc2)c2cc(Cl)ccc2n1CCOc1ccc(C(=O)O)cc1 [Example 89, 4-[2-(3benzhydryl-5-chloro-2-methyl-1H-indol-1-yl)ethoxy]benzoic acid] |
| 5.96 | Cc1c(C(c2ccccc2)c2ccccc2)c2cc(Cl)ccc2n1C/C=C/COc1ccc(C(=O)O)cc1 [Example 88, 4-{[(E)-4-(3-benzhydryl-5-chloro-2-methyl-1H-indol-1-yl)-2-butenyl]oxy}benzoic acid] |
